Data from PubChem BioAssay (NCI).
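Where inhibition never reached the appropriate level, the endpoint shown equals the highest concentration tested. Otherwise, values were interpolated linearly from a five-concentration, 48-hour dose response in 96-well plates. Abbreviation: GI50, concentration required for 50% inhibition of growth. TGI: concentration producing complete growth inhibition.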

Tests used:
Experiment in all cases: NCI tumour cell line growth inhibition, 48 h
OVCAR-8 ovarian = tested on: OVCAR-8 ovarian
NCI-H23 lung = tested on: NCI-H23 lung
NCI-H522 lung = tested on: NCI-H522 lung
SF-295 CNS = tested on: SF-295 CNS
HT29 colon = tested on: HT29 colon
K-562 leukemia = tested on: K-562 leukemia
HCC-2998 colon = tested on: HCC-2998 colon
HCT-15 colon = tested on: HCT-15 colon
SK-OV-3 ovarian = tested on: SK-OV-3 ovarian
SW-620 colon = tested on: SW-620 colon
UACC-257 melanoma = tested on: UACC-257 melanoma
OVCAR-5 ovarian = tested on: OVCAR-5 ovarian
T-47D breast = tested on: T-47D breast
BT-549 breast = tested on: BT-549 breast
CAKI-1 renal = tested on: CAKI-1 renal
SNB-19 CNS = tested on: SNB-19 CNS
SNB-75 CNS = tested on: SNB-75 CNS
RPMI-8226 leukemia = tested on: RPMI-8226 leukemia
HOP-62 NSCLC = tested on: HOP-62 NSCLC
MDA-MB-231 breast = tested on: MDA-MB-231 breast
MDA-MB-435 = tested on: MDA-MB-435
SF-539 CNS = tested on: SF-539 CNS
SK-MEL-28 melanoma = tested on: SK-MEL-28 melanoma
HOP-92 NSCLC = tested on: HOP-92 NSCLC
M14 melanoma = tested on: M14 melanoma
SR leukemia = tested on: SR leukemia
NCI-H460 lung = tested on: NCI-H460 lung
MALME-3M melanoma = tested on: MALME-3M melanoma
UACC-62 melanoma = tested on: UACC-62 melanoma
A498 renal = tested on: A498 renal
SF-268 CNS = tested on: SF-268 CNS
IGROV1 ovarian = tested on: IGROV1 ovarian
MOLT-4 leukemia = tested on: MOLT-4 leukemia
CCRF-CEM leukemia = tested on: CCRF-CEM leukemia
SK-MEL-5 melanoma = tested on: SK-MEL-5 melanoma
HL-60(TB) leukemia = tested on: HL-60(TB) leukemia
HCT-116 colon = tested on: HCT-116 colon
U251 CNS = tested on: U251 CNS
SN12C renal = tested on: SN12C renal
TK-10 renal = tested on: TK-10 renal
PC-3 prostate = tested on: PC-3 prostate
OVCAR-4 ovarian = tested on: OVCAR-4 ovarian
UO-31 renal = tested on: UO-31 renal
LOX IMVI melanoma = tested on: LOX IMVI melanoma
DU-145 prostate = tested on: DU-145 prostate
KM12 colon = tested on: KM12 colon
786-0 renal = tested on: 786-0 renal
OVCAR-3 ovarian = tested on: OVCAR-3 ovarian
HS 578T breast = tested on: HS 578T breast
NCI/ADR-RES ovarian = tested on: NCI/ADR-RES ovarian
MCF7 breast = tested on: MCF7 breast
ACHN renal = tested on: ACHN renal
COLO 205 colon = tested on: COLO 205 colon
A549 NSCLC = tested on: A549 NSCLC
RXF 393 renal = tested on: RXF 393 renal
NCI-H226 lung = tested on: NCI-H226 lung

Question: With `CCCCCCC(O)(c1ccc(F)cc1)C(CN1CCOCC1)c1ccccc1` (configuration not stated) as the compound, how does the GI50 (OVCAR-8 ovarian) read?
Answer: 14.2 µM

Question: And the TGI (OVCAR-8 ovarian)?
Answer: 34.8 µM

Question: And the GI50 (NCI-H23 lung)?
Answer: 11.1 µM

Question: What about the TGI (NCI-H23 lung) of the same compound?
Answer: 30.6 µM

Question: And the GI50 (NCI-H522 lung)?
Answer: 8.14 µM

Question: And the TGI (NCI-H522 lung)?
Answer: 22.3 µM

Question: What about the GI50 (SF-295 CNS) of the same compound?
Answer: 15.3 µM

Question: And the TGI (SF-295 CNS)?
Answer: 31.5 µM

Question: What about the GI50 (HT29 colon) of the same compound?
Answer: 5.37 µM

Question: And the TGI (HT29 colon)?
Answer: 19.9 µM

Question: What about the GI50 (K-562 leukemia) of the same compound?
Answer: 14.9 µM

Question: What about the TGI (K-562 leukemia) of the same compound?
Answer: 37.7 µM

Question: What about the GI50 (HCC-2998 colon) of the same compound?
Answer: 13.8 µM

Question: What about the TGI (HCC-2998 colon) of the same compound?
Answer: 29.3 µM

Question: And the GI50 (HCT-15 colon)?
Answer: 11.5 µM

Question: What about the TGI (HCT-15 colon) of the same compound?
Answer: 24.7 µM

Question: And the GI50 (SK-OV-3 ovarian)?
Answer: 16 µM

Question: What about the TGI (SK-OV-3 ovarian) of the same compound?
Answer: 36.7 µM

Question: And the GI50 (SW-620 colon)?
Answer: 12.2 µM

Question: And the TGI (SW-620 colon)?
Answer: 26.3 µM

Question: And the GI50 (UACC-257 melanoma)?
Answer: 10.3 µM

Question: What about the TGI (UACC-257 melanoma) of the same compound?
Answer: 27.3 µM

Question: And the GI50 (OVCAR-5 ovarian)?
Answer: 13.8 µM

Question: And the TGI (OVCAR-5 ovarian)?
Answer: 26.8 µM

Question: And the GI50 (T-47D breast)?
Answer: 10.4 µM

Question: What about the TGI (T-47D breast) of the same compound?
Answer: 23.8 µM

Question: And the GI50 (BT-549 breast)?
Answer: 14.7 µM

Question: And the TGI (BT-549 breast)?
Answer: 29.6 µM

Question: What about the GI50 (CAKI-1 renal) of the same compound?
Answer: 12.5 µM

Question: And the TGI (CAKI-1 renal)?
Answer: 28.9 µM

Question: And the GI50 (SNB-19 CNS)?
Answer: 12.8 µM

Question: What about the TGI (SNB-19 CNS) of the same compound?
Answer: 27.5 µM

Question: And the GI50 (SNB-75 CNS)?
Answer: 14.4 µM

Question: And the TGI (SNB-75 CNS)?
Answer: 35.9 µM

Question: And the GI50 (RPMI-8226 leukemia)?
Answer: 5.48 µM

Question: What about the TGI (RPMI-8226 leukemia) of the same compound?
Answer: 21.7 µM

Question: And the GI50 (HOP-62 NSCLC)?
Answer: 19.2 µM

Question: What about the TGI (HOP-62 NSCLC) of the same compound?
Answer: 35.3 µM

Question: And the GI50 (MDA-MB-231 breast)?
Answer: 11.4 µM

Question: What about the TGI (MDA-MB-231 breast) of the same compound?
Answer: 26.5 µM

Question: What about the GI50 (MDA-MB-435) of the same compound?
Answer: 15.8 µM

Question: And the TGI (MDA-MB-435)?
Answer: 41.7 µM

Question: What about the GI50 (SF-539 CNS) of the same compound?
Answer: 15.6 µM

Question: What about the TGI (SF-539 CNS) of the same compound?
Answer: 29.6 µM

Question: And the GI50 (SK-MEL-28 melanoma)?
Answer: 16.4 µM

Question: And the TGI (SK-MEL-28 melanoma)?
Answer: 34.5 µM

Question: What about the GI50 (HOP-92 NSCLC) of the same compound?
Answer: 12.8 µM

Question: And the TGI (HOP-92 NSCLC)?
Answer: 26.1 µM

Question: And the GI50 (M14 melanoma)?
Answer: 16.3 µM

Question: And the TGI (M14 melanoma)?
Answer: 34.4 µM

Question: And the GI50 (SR leukemia)?
Answer: 11.9 µM

Question: What about the TGI (SR leukemia) of the same compound?
Answer: 29.8 µM

Question: What about the GI50 (NCI-H460 lung) of the same compound?
Answer: 13.4 µM

Question: And the TGI (NCI-H460 lung)?
Answer: 29.3 µM

Question: What about the GI50 (MALME-3M melanoma) of the same compound?
Answer: 15 µM

Question: What about the TGI (MALME-3M melanoma) of the same compound?
Answer: 33.4 µM

Question: What about the GI50 (UACC-62 melanoma) of the same compound?
Answer: 11.4 µM

Question: What about the TGI (UACC-62 melanoma) of the same compound?
Answer: 27.7 µM

Question: And the GI50 (A498 renal)?
Answer: 11.6 µM

Question: And the TGI (A498 renal)?
Answer: 30 µM

Question: And the GI50 (SF-268 CNS)?
Answer: 13 µM

Question: What about the TGI (SF-268 CNS) of the same compound?
Answer: 28.4 µM

Question: What about the GI50 (IGROV1 ovarian) of the same compound?
Answer: 12.8 µM

Question: What about the TGI (IGROV1 ovarian) of the same compound?
Answer: 41.9 µM

Question: What about the GI50 (MOLT-4 leukemia) of the same compound?
Answer: 13.3 µM

Question: What about the TGI (MOLT-4 leukemia) of the same compound?
Answer: 32.4 µM

Question: And the GI50 (CCRF-CEM leukemia)?
Answer: 13.9 µM

Question: And the TGI (CCRF-CEM leukemia)?
Answer: 32.9 µM

Question: And the GI50 (SK-MEL-5 melanoma)?
Answer: 4.64 µM

Question: And the TGI (SK-MEL-5 melanoma)?
Answer: 18.6 µM

Question: And the GI50 (HL-60(TB) leukemia)?
Answer: 12 µM

Question: What about the TGI (HL-60(TB) leukemia) of the same compound?
Answer: 31.6 µM

Question: And the GI50 (HCT-116 colon)?
Answer: 8.53 µM

Question: What about the TGI (HCT-116 colon) of the same compound?
Answer: 24.6 µM

Question: And the GI50 (U251 CNS)?
Answer: 12.2 µM

Question: And the TGI (U251 CNS)?
Answer: 25.1 µM

Question: And the GI50 (SN12C renal)?
Answer: 12.7 µM

Question: What about the TGI (SN12C renal) of the same compound?
Answer: 28.3 µM

Question: And the GI50 (TK-10 renal)?
Answer: 18 µM

Question: What about the TGI (TK-10 renal) of the same compound?
Answer: 32.8 µM

Question: What about the GI50 (PC-3 prostate) of the same compound?
Answer: 5.24 µM

Question: What about the TGI (PC-3 prostate) of the same compound?
Answer: 21.3 µM

Question: And the GI50 (OVCAR-4 ovarian)?
Answer: 14.2 µM

Question: And the TGI (OVCAR-4 ovarian)?
Answer: 29.8 µM

Question: And the GI50 (UO-31 renal)?
Answer: 11.6 µM

Question: What about the TGI (UO-31 renal) of the same compound?
Answer: 26.4 µM

Question: And the GI50 (LOX IMVI melanoma)?
Answer: 16.2 µM

Question: What about the TGI (LOX IMVI melanoma) of the same compound?
Answer: 31.1 µM

Question: And the GI50 (DU-145 prostate)?
Answer: 14.6 µM

Question: And the TGI (DU-145 prostate)?
Answer: 28.7 µM

Question: And the GI50 (KM12 colon)?
Answer: 12.4 µM

Question: And the TGI (KM12 colon)?
Answer: 28.4 µM

Question: And the GI50 (786-0 renal)?
Answer: 13.2 µM

Question: And the TGI (786-0 renal)?
Answer: 27.3 µM

Question: What about the GI50 (OVCAR-3 ovarian) of the same compound?
Answer: 12.5 µM

Question: And the TGI (OVCAR-3 ovarian)?
Answer: 25.4 µM

Question: What about the GI50 (HS 578T breast) of the same compound?
Answer: 14.8 µM

Question: What about the TGI (HS 578T breast) of the same compound?
Answer: 40 µM

Question: What about the GI50 (NCI/ADR-RES ovarian) of the same compound?
Answer: 12.1 µM

Question: What about the TGI (NCI/ADR-RES ovarian) of the same compound?
Answer: 34.2 µM

Question: What about the GI50 (MCF7 breast) of the same compound?
Answer: 11.7 µM

Question: What about the TGI (MCF7 breast) of the same compound?
Answer: 24.4 µM

Question: What about the GI50 (ACHN renal) of the same compound?
Answer: 12.3 µM

Question: And the TGI (ACHN renal)?
Answer: 24.9 µM

Question: What about the GI50 (COLO 205 colon) of the same compound?
Answer: 12.1 µM

Question: What about the TGI (COLO 205 colon) of the same compound?
Answer: 27 µM

Question: What about the GI50 (A549 NSCLC) of the same compound?
Answer: 11.7 µM

Question: And the TGI (A549 NSCLC)?
Answer: 29.3 µM

Question: What about the GI50 (RXF 393 renal) of the same compound?
Answer: 5.26 µM

Question: And the TGI (RXF 393 renal)?
Answer: 19 µM

Question: What about the GI50 (NCI-H226 lung) of the same compound?
Answer: 8.63 µM

Question: And the TGI (NCI-H226 lung)?
Answer: 24.8 µM
